Holding throughout (format): in vivo
For data set [1], the system named is Beet Armyworm (Spodoptera exigua, LAPHEG). The data set can be described thus: Bioassay on Beet Armyworm (BAW), 128-well diet tray assay. The following applies: 168 h, 50 μg/cm^2 on artificial diet, second instar larvae, 25° C., five to seven days, average of eight wells, read-out: BAW % Control (or Mortality) rating. Here is the method:
(§1) Certain molecules disclosed in this document were tested against BAW and CL using procedures described in the following examples. In the reporting of the results, the “BAW & CL Rating Table” was used (See Table Section).
Bioassays on BAW were conducted using a 128-well diet tray assay. One to five second instar BAW larvae were placed in each well (3 mL) of the diet tray that had been previously filled with approximately 1.5 mL of artificial diet to which 50 μg/cm^2 of the test molecule (dissolved in 50 μL of 90:10 acetone-water mixture) had been applied (to each of eight wells) and then allowed to dry. Trays were covered with a clear self-adhesive cover, vented to allow gas exchange, and held at 25° C., 14:10 light-dark for five to seven days. Percent mortality was recorded for the larvae in each well; activity in the eight wells was then averaged. The results are indicated in the table entitled “Table ABC: Biological Results” (See Table Section).

Data set [2] relates to Cabbage Looper (Trichoplusia ni, TRIPNI). The data set is described as follows: Bioassay on Cabbage Looper (CL), 128-well diet tray assay. To be noted: 168 h, 50 μg/cm^2 on artificial diet, second instar larvae, 25° C., five to seven days, average of eight wells, read-out: CL % Control (or Mortality) rating. The procedure: as §1
Bioassays on CL were conducted using a 128-well diet tray assay, one to five second instar CL larvae were placed in each well (3 mL) of the diet tray that had been previously filled with 1 mL of artificial diet to which 50 μg/cm^2 of the test molecule (dissolved in 50 μL of 90:10 acetone-water mixture) had been applied (to each of eight wells) and then allowed to dry. Trays were covered with a clear self-adhesive cover, vented to allow gas exchange, and held at 25° C., 14:10 light-dark for five to seven days. Percent mortality was recorded for the larvae in each well; activity in the eight wells was then averaged. The results are indicated in the table entitled “Table ABC: Biological Results” (See Table Section).

Data set [3] concerns Yellow Fever Mosquito (Aedes aegypti, AEDSAE). The data set can be described thus: Bioassay on Yellow Fever Mosquito (YFM) larvae, 96-well plate. The following applies: about 1 day-old larvae, room temperature, 3 days, scored on mortality. The procedure:
Certain molecules disclosed in this document were tested against YFM using procedures described in the following paragraph. In the reporting of the results, the “GPA & YFM Rating Table” was used (See Table Section).
Master plates containing 400 μg of a molecule dissolved in 100 μL of dimethyl sulfoxide (DMSO) (equivalent to a 4000 ppm solution) are used. A master plate of assembled molecules contains 15 μL per well. To this plate, 135 μL of a 90:10 water/acetone mixture is added to each well. A robot is programmed to dispense 15 μL aspirations from the master plate into an empty 96-well shallow plate (“daughter” plate). There are 6 reps (“daughter” plates) created per master. The created “daughter” plates are then immediately infested with YFM larvae.
The day before plates are to be treated, mosquito eggs are placed in Millipore water containing liver powder to begin hatching (4 g. into 400 mL). After the “daughter” plates are created using the robot, they are infested with 220 μL of the liver powder/larval mosquito mixture (about 1 day-old larvae). After plates are infested with mosquito larvae, a non-evaporative lid is used to cover the plate to reduce drying. Plates are held at room temperature for 3 days prior to grading. After 3 days, each well is observed and scored based on mortality. The results are indicated in the table entitled “Table ABC: Biological Results” (See Table Section).

With `O=C(NCC(F)(F)F)c1cc(NC(=O)[C@H]2[C@H](c3ccc(Cl)c(C(F)(F)F)c3)C2(Cl)Cl)ccc1Cl` (relative stereo) [F117, 2-Chloro-5-(trans-2,2-dichloro-3-(4-chloro-3-(trifluoromethyl)phenyl)cyclopropane-1-carboxamido)-N-(2,2,2-trifluoroethyl)benzamide], the mortality at 50 µg/cm2 in data set [1] and in data set [2] was 50 to 100% in each case. The “YFM % Control (or Mortality) rating” value in data set [3] is on record as “A (80-100)”.
Turning to `O=C(NCCC(F)(F)F)c1cc(NC(=O)[C@H]2[C@H](c3ccc(F)c(Cl)c3)C2(Cl)Cl)ccc1Cl` (relative stereo) [F107, trans-2-Chloro-5-(2,2-dichloro-3-(3-chloro-4-fluorophenyl)cyclopropane-1-carboxamido)-N-(3,3,3-trifluoropropyl)benzamide], the mortality at 50 µg/cm2 in data set [1] and in data set [2] was 50 to 100% each time. Besides, the “YFM % Control (or Mortality) rating” value in data set [3] is “B (More than 0-Less than 80)”.
For `O=C(NCC(F)(F)F)c1cc(NC(=O)[C@H]2[C@H](c3cc(Cl)cc(Cl)c3)C2(Br)Br)ccc1Cl` (relative stereo) [PF1, trans-2-Chloro-5-(2,2-dibromo-3-(3,5-dichlorophenyl)cyclopropane-1-carboxamido)-N-(2,2,2-trifluoroethyl)benzamide], the mortality at 50 µg/cm2 in data set [1] and in data set [2] was 50 to 100% each time. In addition, the “YFM % Control (or Mortality) rating” value in data set [3] is reported as “D (No activity noticed in this bioassay)”.
With `O=C(NCCF)c1cc(NC(=O)[C@H]2[C@H](c3ccc(F)c(Cl)c3)C2(Cl)Cl)ccc1Cl` (relative stereo) [F104, trans-2-Chloro-5-(2,2-dichloro-3-(3-chloro-4-fluorophenyl)cyclopropane-1-carboxamido)-N-(2-fluoroethyl)benzamide], the mortality at 50 µg/cm2 in data set [1] and in data set [2] was 50 to 100% each time. The “YFM % Control (or Mortality) rating” value in data set [3] is “A (80-100)”.
For `O=C(NCCC(F)(F)F)c1cc(NC(=O)[C@H]2[C@H](c3cc(Cl)cc(Cl)c3)C2(Cl)Cl)cc(Cl)c1Cl` (relative stereo) [F94, trans-2,3-Dichloro-5-(2,2-dichloro-3-(3,5-dichlorophenyl)cyclopropane-1-carboxamido)-N-(3,3,3-trifluoropropyl)benzamide], the mortality at 50 µg/cm2 in data set [1] and in data set [2] was 50 to 100% throughout. The “YFM % Control (or Mortality) rating” value in data set [3] is listed as “A (80-100)”.
For the compound `O=C(NCC(F)(F)F)c1cc(NC(=O)[C@H]2[C@H](c3ccc(C(F)(F)F)c(F)c3)C2(Cl)Cl)ccc1Cl` (relative stereo) [F112, 2-Chloro-5-(trans-2,2-dichloro-3-(3-fluoro-4-(trifluoromethyl)phenyl)cyclopropane-1-carboxamido)-N-(2,2,2-trifluoroethyl)benzamide], the mortality at 50 µg/cm2 in data set [1] and in data set [2] was 50 to 100% each time. In addition, the “YFM % Control (or Mortality) rating” value in data set [3] was “A (80-100)”.
With `C[C@H](C[S+]([O-])CC(F)(F)F)NC(=O)c1cc(NC(=O)C2C(c3cc(Cl)cc(Cl)c3)C2(Cl)Cl)ccc1Cl` (stereo in doubt) [PF7, trans-2-Chloro-5-(2,2-dichloro-3-(3,5-dichlorophenyl)cyclopropane-1-carboxamido)-N-((2R)-1-((2,2,2-trifluoroethyl)sulfinyl)propan-2-yl)benzamide], the mortality at 50 µg/cm2 in data set [1] and in data set [2] was 50 to 100% in each case. In addition, the “YFM % Control (or Mortality) rating” value in data set [3] is “A (80-100)”.
Regarding `C[C@H](CS(=O)(=O)CCC(F)(F)F)NC(=O)c1cc(NC(=O)C2C(c3cc(Cl)cc(Cl)c3)C2(Cl)Cl)ccc1Cl` (stereo in doubt) [PF4, trans-2-Chloro-5-(2,2-dichloro-3-(3,5-dichlorophenyl)cyclopropane-1-carboxamido)-N—((R)-1-((3,3,3-trifluoropropyl)sulfonyl)propan-2-yl)benzamide], the mortality at 50 µg/cm2 in data set [1] and in data set [2] was 50 to 100% each time. Moreover, the “YFM % Control (or Mortality) rating” value in data set [3] is listed as “A (80-100)”.
In the case of `O=C(NCC(F)(F)F)c1cc(NC(=O)[C@H]2[C@H](c3ccc(C(F)F)cc3)C2(Cl)Cl)ccc1Cl` (relative stereo) [F135, 2-Chloro-5-(trans-2,2-dichloro-3-(4-(difluoromethyl)phenyl)cyclopropane-1-carboxamido)-N-(2,2,2-trifluoroethyl)benzamide], the mortality at 50 µg/cm2 was 0% in data set [1] and 50 to 100% in data set [2]. Moreover, the “YFM % Control (or Mortality) rating” value in data set [3] is “A (80-100)”.
Take `CCCNC(=O)c1cc(NC(=O)[C@H]2[C@H](c3cc(Cl)cc(Cl)c3)C2(Cl)Cl)cc(Cl)c1Cl` (relative stereo) [F95, trans-2,3-Dichloro-5-(2,2-dichloro-3-(3,5-dichlorophenyl)cyclopropane-1-carboxamido)-N-propylbenzamide]: the mortality at 50 µg/cm2 in data set [1] and in data set [2] was 50 to 100% throughout. For the same compound, the “YFM % Control (or Mortality) rating” value in data set [3] is “A (80-100)”.
For `NS(=O)(=O)CCCNC(=O)c1cc(NC(=O)[C@H]2[C@H](c3cc(Cl)cc(Cl)c3)C2(Cl)Cl)ccc1Cl` (relative stereo) [PF14, trans-2-Chloro-5-(2,2-dichloro-3-(3,5-dichlorophenyl)cyclopropane-1-carboxamido)-N-(3-sulfamoylpropyl)benzamide], the mortality at 50 µg/cm2 lay within 0 to 50% in data set [1] and 50 to 100% in data set [2]. Further, the “YFM % Control (or Mortality) rating” value in data set [3] was “D (No activity noticed in this bioassay)”.
`CCNC(=O)c1cc(NC(=O)[C@H]2[C@H](c3cc(Cl)cc(Cl)c3)C2(Cl)Cl)cc(Cl)c1Cl` (relative stereo) [F91, trans-2,3-Dichloro-5-(2,2-dichloro-3-(3,5-dichlorophenyl)cyclopropane-1-carboxamido)-N-ethylbenzamide]: the mortality at 50 µg/cm2 in data set [1] and in data set [2] was 50 to 100% throughout. In addition, in data set [3], the “YFM % Control (or Mortality) rating” value is “A (80-100)”.
`CN(CC1CC1)C(=O)c1cc(NC(=O)[C@H]2[C@H](c3cc(Cl)cc(Cl)c3)C2(Cl)Cl)ccc1Cl` (relative stereo) [F69, trans-2-Chloro-N-(cyclopropylmethyl)-5-(2,2-dichloro-3-(3,5-dichlorophenyl)cyclopropane-1-carboxamido)-N-methylbenzamide]: the mortality at 50 µg/cm2 in data set [1] and in data set [2] was 50 to 100% throughout. For the same compound, the “YFM % Control (or Mortality) rating” value in data set [3] is on record as “D (No activity noticed in this bioassay)”.
Consider `O=C(NCC(F)(F)F)c1cc(NC(=O)[C@H]2[C@H](c3ccc(Br)c(Br)c3)C2(Cl)Cl)ccc1Cl` (relative stereo) [F111, 2-Chloro-5-(trans-2,2-dichloro-3-(3,4-dibromophenyl)cyclopropane-1-carboxamido)-N-(2,2,2-trifluoroethyl)benzamide], for which the mortality at 50 µg/cm2 in data set [1] and in data set [2] was 50 to 100% each time. Moreover, in data set [3], the “YFM % Control (or Mortality) rating” value is recorded as “A (80-100)”.
Regarding `CC(O)CNC(=O)c1cc(NC(=O)[C@H]2[C@H](c3cc(Cl)cc(Cl)c3)C2(Cl)Cl)ccc1Cl` (relative stereo) [F78, trans-2-Chloro-5-(2,2-dichloro-3-(3,5-dichlorophenyl)cyclopropane-1-carboxamido)-N-(2-hydroxypropyl)benzamide], the mortality at 50 µg/cm2 in data set [1] and in data set [2] was 50 to 100% in each case. Also, the “YFM % Control (or Mortality) rating” value in data set [3] is on record as “A (80-100)”.
Consider `COCCOCCCNC(=O)c1cc(NC(=O)[C@H]2[C@H](c3cc(Cl)cc(Cl)c3)C2(Cl)Cl)ccc1Cl` (relative stereo) [F58, trans-2-Chloro-5-(2,2-dichloro-3-(3,5-dichlorophenyl)cyclopropane-1-carboxamido)-N-(3-(2-methoxyethoxy)propyl)benzamide], for which the mortality at 50 µg/cm2 in data set [1] and in data set [2] was 50 to 100% throughout. For the same compound, the “YFM % Control (or Mortality) rating” value in data set [3] is reported as “A (80-100)”.
